The values that follow come from patent US4409228A, “Andrexiant aminopiperidines intermediates thereto and drugs containing same” (Sanofi, priority 1979, dated 1983).

Common to all, as to format: in vivo
Data set [1] can be described thus: Acute toxicity, LD50 in the rat by the oral route. The following applies: in vivo; for selectivity ratio: ratio acute toxicity LD50 / anorexiant ED50 (therapeutic index), read-out: A/B. From the text: (§1) the acute toxicity, expressed at LD50 in the rat by the oral route (data A);
The nature of data set [2]: Locomotor activity in the rat, oral (inhibition of spontaneous motility, photoelectric cell). The following applies: for ED50 at 0.5 h / selectivity ratio: in vivo; for ED50 at 0.5 h: female rats, oral dose inhibiting spontaneous motility by 50%, pulses during 10 minutes, 30 minutes after treatment, read-out: C locom. act. inhibition ID50; for selectivity ratio: ratio locomotor ID50 / anorexiant ED50 (therapeutic index), read-out: C/B; for selectivity ratio / inhibition of locomotor activity (in words): oral; for inhibition of locomotor activity (in words): relative to anorexiant ED50. As to the method:
The products were also assessed as a function of their action on the locomotor activity in the rat. To this end, female rats weighing about 200 g were used, to which the compounds were administered by the oral route. After 30 minutes, the treated animals were placed in a cage (80×80 cm) provided with a photoelectric cell for measuring the spontaneous movements, and the number of pulses transmitted to the cell for 10 minutes was recorded. The inhibition of the locomotor activity of each substance (6 to 10 animals per dose) was expressed as a percentage with respect to the controls.
the action on the locomotor activity, expressed as oral dose inhibiting by 50% the spontaneous motility, namely the number of pulses transmitted to the photoelectric cell during the 10 minutes (ID50, data C);

Data set [3] is described as follows: Anorexiant activity, food consumption method in the rat, oral (ED50). The following applies: for ED50: read-out: B anorexiant activity ED50; for anorexiant activity (in words): oral. As to the method:
(§2) The anorexiant activity was assessed by the food consumption method in the rat. Female rats weighing 200 g were used, trained for 10 days to eat during a period of 4 hours and selected on the eighth day. After the tenth day, the randomized animals were divided into a "control group", treated solely with the carrier, and into several "treated groups". The treatment was effected by the intraperitoneal route 30 minutes before the presentation of food and the quantity of food consumed in the course of the first hour was then measured. The data in Table I indicate the percentage of inhibition of the food consumption of the animals treated with the compounds according to the present invention with respect to the controls.
The anorexiant activity by the oral route of a product according to the present invention, 4-amino-1-(6-chloro-2-pyridyl)piperidine in the form of mono hydrochloride (CM 57227, compound of Example 1), was tested in accordance with the food consumption method described hereinabove; as well known anorexiant product, fenfluramine, as well as 1-(6-chloro-2-pyridyl)piperazine in the form of monohydrochloride, described in U.S. Pat. No. 4,078,063, and 1-(6-chloro-2-pyrazinyl) piperazine in monohydrochloride form, described in British Pat. No. 1,492,528, were used as reference products.
the anorexiant activity, expressed as oral dose inhibiting by 50% the food consumption (ED50, data B);

The test system of data set [4] is cerebral serotonin. In words: Cerebral levels of serotonin after intraperitoneal administration in the rat. The following applies: for Cerebral levels of serotonin % with respect to controls: 60 minutes before sacrifice. As for the experimental part:
Table III below summarises the cerebral levels of serotonin after intraperitoneal administration in the rat of a compound according to the present invention, 4-amino-1-(6-chloro-2-pyridyl) piperidine in monohydrochloride form (CM 57227, product of Example 1). Fenfluramine was used as reference product.
The animals were treated 60 minutes before sacrifice.

Data set [5] has as its system male mice. Nature of the data set: Acute toxicity, zone of mortality, mice, intraperitoneal. The following applies: i.p., 48 h observation, doses with lowest (at least 1 death) and highest mortality. As to the method: With respect to their degree of activity, the 4-amino-1-(2-pyridyl)piperidines of the present invention are sparingly toxic and present a good therapeutic index. In Table I hereinbelow, the acute toxicity is expressed in the form of "zone of mortality". 6 batches of male mice weighing about 20 g were used, in which were injected the compounds of the present invention, dissolved or suspended in carboxymethylcellulose, by the intraperitoneal route, at at least four doses for each batch of animals. […] The "mortality zone" is represented by the doses at which the lowest mortality (at least 1 death) and the highest are observed.

Data set [6] in a line: Anorexiant activity, food consumption method in the rat, intraperitoneal. The following applies: female rats, i.p., food consumed in first hour, vs controls. As to the method: as §2
Data set [7] concerns rat. Nature of the data set: Acute toxicity, LD50 in the rat by the oral route.
From the text: as §1

Structures are written as SMILES. Counter-ions that a name gives are not always drawn. Like-named read-outs stand apart in the source and are kept apart here.

Usually LD50 stands for the dose at which mortality reaches 50%. Read a high LD50 as a less toxic substance. Turning to `Clc1cncc(N2CCNCC2)n1` [1-(6-chloro-2-pyrazinyl)piperazine HCl, 1-(6-chloro-2-pyrazinyl) piperazine], in data set [1], the 50% lethal dose (LD50) is 79.6 mg/kg and the selectivity ratio is 46.8. Besides, in data set [2], the ED50 at 0.5 h came out at 0.6 mg/kg, the selectivity ratio is 0.3 and the “inhibition of locomotor activity (in words)” value (shortened to “inhibition … (in words)”) is on record as “inhibit the locomotor activity at doses even lower than the anorexiant ED50”. For the same molecule, the ED50 in data set [3] (Rattus norvegicus, po) stood at 1.7 mg/kg. The “anorexiant activity (in words)” value in data set [3] (rat) is “very active as anorexiants”.

Turning to `Clc1cccc(N2CCNCC2)n1` [1-(6-chloro-2-pyridyl)piperazine HCl, 1-(6-chloro-2-pyridyl)piperazine], in data set [1], the median lethal dose (LD50) was 174 mg/kg and the selectivity ratio is 48.3. In data set [2], the ED50 at 0.5 h amounted to 2.1 mg/kg, the selectivity ratio stood at 0.58 and the “inhibition … (in words)” value was “inhibit the locomotor activity at doses even lower than the anorexiant ED50”. Further, in data set [3] (Rattus norvegicus, po), the ED50 is 3.6 mg/kg. Further, in data set [3] (rat), the “anorexiant activity (in words)” value is “very active as anorexiants”.

In turn, `NC1CCN(c2cccc(Cl)n2)CC1` [CM 57227, 4-amino-1-(6-chloro-2-pyridyl) piperidine] registered a median lethal dose (LD50) in data set [1] of 190 mg/kg. The selectivity ratio was 24.3 in data set [1] and 7.7 in data set [2]. Moreover, the “Cerebral levels of serotonin % with respect to controls” value in data set [4] (5 mg/kg i.p.) is reported as 105%; in data set [4] (10 mg/kg i.p.), 120%. The ED50 at 0.5 h in data set [2] is 60 mg/kg. In addition, the Mortality zone in data set [5] is 100 to 150 mg/kg. Besides, the ED50 in data set [3] (rat, oral dose inhibiting food consumption by 50%) is 7.8 mg/kg. The “Food consumption % inhibition” value in data set [6] (10 mg/kg) was 70.8%.

`COc1cccc(N2CCC(N)CC2)n1` [CM 57366, 4-amino-1-(6-methoxy-2-pyridyl) piperidine]: the Mortality zone in data set [5] was in the range of 150 to 200 mg/kg. Besides, the “Food consumption % inhibition” value in data set [6] (30 mg/kg) is 67.0%.

Consider `NC1CCN(c2cccc(Sc3ccccc3)n2)CC1` [CM 57369, 4-amino-1-(6-phenylthio-2-pyridyl)piperidine], for which the Mortality zone in data set [5] fell in the range of 150 to 200 mg/kg. Also, the “Food consumption % inhibition” value in data set [6] (40 mg/kg) is 95.2%.

In data set [5], `Cc1cccc(N2CCC(N)CC2)n1` [CM 57371, 4-amino-1-(6-methyl-2-pyridyl)piperidine] registered a Mortality zone of 175 to 225 mg/kg. Further, the “Food consumption % inhibition” value in data set [6] (40 mg/kg) is recorded as 77.2%.

`NC1CCN(c2cccc(Br)n2)CC1` [CM 57373, 4-amino-1-(6-bromo-2-pyridyl) piperidine] returned a Mortality zone in data set [5] of 100 to 175 mg/kg. In addition, the “Food consumption % inhibition” value in data set [6] (20 mg/kg) is listed as 89.8%.

In turn, `NC1CCN(c2cccc(OCC(F)(F)F)n2)CC1` [CM 57385, 4-amino-1-[6-(2,2,2-trifluoro)ethoxy-2-pyridyl] piperidine] displayed a Mortality zone in data set [5] of 150 to 250 mg/kg. In data set [6] (30 mg/kg), the “Food consumption % inhibition” value came out at 78.2%.

On to `CCNC(C)Cc1cccc(C(F)(F)F)c1` (centres unmarked) [fenfluramine], for which, in data set [7], the “A Acute toxicity LD50” value was determined as 100.9 mg/kg. In addition, the “therapeutic index A/B, comparison (in words)” value in data set [7] is given as “almost equal to that of the 4-amino-1-(6-chloro-2-pyridyl)piperidine of the present invention”. The selectivity ratio was 25.2 in data set [1] and 3 in data set [2]. Further, the “Cerebral levels of serotonin % with respect to controls” value amounted to 69% in data set [4] (3.75 mg/kg i.p., * significant: p < 0.01); 51% in data set [4] (7.5 mg/kg i.p., * significant: p < 0.01); 42% in data set [4] (15 mg/kg i.p., * significant: p < 0.01). For the same molecule, the “cerebral levels of serotonin (in words)” value in data set [4] (i.p., anorexiant or equivalent doses) is listed as “causes a significant reduction in cerebral serotonin”. Further, the ED50 at 0.5 h in data set [2] turned out to be 12 mg/kg. In data set [2], the “inhibition … (in words)” value is listed as “much greater inhibiting action on the locomotor activity”. The ED50 in data set [3] (Rattus norvegicus, po) stood at 4 mg/kg.
